Read-outs that look alike come from different tables or passages of the source.
How the values were obtained:
[1] = Hoechst 33342 nuclear staining (48 h read-out); assay type: cell-based
Method in brief: (§1)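 Adherent cells pre-spread 24 h before dosing, suspension cells dosed at seeding; compounds at 0.001 μM-10 μM final, 48 h at culture conditions. Hoechst 33342 (2-5 μg/ml) added for 30 min, then fluorescence microscopy scoring of apoptotic nuclear fraction and apoptosis-specific morphology, reported as scores A-D.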

tumor cells [2] = assay: Hoechst 33342 nuclear staining (48 h read-out); assay type: cell-based
Method in brief: as §1

[3] = MTS proliferation assay (72 h read-out); assay type: cell-based; conditions: MRC5 cells
Method in brief: (§2)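 Tumour cells (1.5×10^3–10^4 per well) were seeded 24 h before compound addition, then exposed to 0.001–10 μM final compound for 72 h under culture conditions. MTS reagent was added for a further 3 h, absorbance was read at 492 nm, and results were binned into scores A–D.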

tumor cells [4] = assay: MTS proliferation assay (72 h read-out); assay type: cell-based
Method in brief: as §2

[5] = Mitochondrial membrane potential, JC-1 (read-out 48 h); assay type: cell-based; conditions: PBL, JC-1, 48 h
Method in brief: (§3)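 Tumor cells were treated with test compounds (adherent cells after 24 h of attachment, suspension cells immediately), medium holding up to 5% DMSO. After 48 h, JC-1 (2-5 μg/ml in added medium) was applied for 30 min. Fluorescence microscopy (FITC/TRITC filters) scored the fraction of cells with dissipated mitochondrial membrane potential as categories A-D.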

tumor cells [6] = assay: as above; assay type: cell-based; conditions: JC-1, 48 h
Method in brief: as §3

HeLa = assay: Colony Forming Units (read-out 6 days), HeLa; assay type: cell-based, human; conditions: colonies containing more than 30 cells, read-out: Colony Forming Units, score based on IC50, HeLa
Description: (§4) Appropriate numbers of cells (100-150 cells, dependent on the cell type) are being seeded out in 1 ml complete medium into 6-well plates and allowed to attach for 48 h. The compounds are added after 48 h in 500 μl solution. The concentrations are in the range of 0.001 μM-3 μM. Control plates receive the same volume of medium containing the appropriate amount of DMSO. The plates are incubated for 5-7 days at cell culture conditions and subsequently scored for growth of colonies (containing more than 30 cells) by using a microscope.

H460 = assay: Colony Forming Units (read-out 6 days), H460; assay type: cell-based, human; conditions: colonies containing more than 30 cells, read-out: Colony Forming Units, score based on IC50, H460
Description: as §4

[7] = MRC5 cells, read-out: Hoechst 33342 nuclear staining EC50, MRC5
[8] = PBL, read-out: Hoechst 33342 nuclear staining EC50, PBL
[9] = HeLa cells, read-out: Hoechst 33342 nuclear staining EC50, HeLa
[10] = Jily cells, read-out: Hoechst 33342 nuclear staining EC50, Jily
[11] = Jurkat cells, read-out: Hoechst 33342 nuclear staining EC50, Jurkat
[12] = HT1080 cells, read-out: MTS proliferation assay IC50, HT1080
[13] = HeLa cells, read-out: MTS proliferation assay IC50, HeLa
[14] = Jily cells, read-out: MTS proliferation assay IC50, Jily
[15] = Jurkat cells, read-out: MTS proliferation assay IC50, Jurkat
[16] = HeLa cells, read-out: Mitochondrial membrane potential (read-out 48 h) HeLa
[17] = Jily cells, read-out: Mitochondrial membrane potential (read-out 48 h) Jily
[18] = Jurkat cells, read-out: Mitochondrial membrane potential (read-out 48 h) Jurkat
[19] = MCF7 cells, read-out: Mitochondrial membrane potential (read-out 48 h) MCF7
[20] = Homo sapiens, MRC5 cells, read-out: Hoechst 33342 nuclear staining EC50, MRC5
[21] = Homo sapiens, HeLa cells, read-out: Hoechst 33342 nuclear staining EC50, HeLa
[22] = Homo sapiens, Jurkat cells, read-out: Hoechst 33342 nuclear staining EC50, Jurkat
[23] = Homo sapiens, HeLa cells, read-out: Mitochondrial membrane potential (read-out 48 h) HeLa
[24] = Homo sapiens, Jurkat cells, read-out: Mitochondrial membrane potential (read-out 48 h) Jurkat
[25] = Homo sapiens, MCF7 cells, read-out: Mitochondrial membrane potential (read-out 48 h) MCF7

Row | Structure (SMILES) | EC50 [1, 7] [nM] | EC50 [1, 8] [nM] | EC50 (tumor cells [2]; [9]) [nM] | EC50 (tumor cells [2]; [10]) [nM] | EC50 (tumor cells [2]; [11]) [nM] | IC50 [3] [nM] | IC50 (tumor cells [4]; [12]) [nM] | IC50 (tumor cells [4]; [13]) [nM] | IC50 (tumor cells [4]; [14]) [nM] | IC50 (tumor cells [4]; [15]) [nM] | EC50 [5] [nM] | EC50 (tumor cells [6]; [16]) [nM] | EC50 (tumor cells [6]; [17]) [nM] | EC50 (tumor cells [6]; [18]) [nM] | EC50 (tumor cells [6]; [19]) [nM] | IC50 (HeLa) [nM] | IC50 (H460) [nM] | further results
1 | Nc1c(C(=O)c2ccccc2OCC(F)(F)F)oc2ccc(Cl)cc12 [Example 61] | > 1000 | > 1000 | 100 to 1000 | 10 to 100 | < 10 | 10 to 100 | 10 to 100 | 10 to 100 | < 10 | < 10 | > 1000 | 100 to 1000 | 10 to 100 | 10 to 100 | > 1000 | 10 to 100 | 10 to 100 | –
2 | CCOc1ccc2oc(C(=O)c3cc(F)ccc3OCC)cc2c1 [Example 66] | 100 to 1000 | > 1000 | 10 to 100 | < 10 | 10 to 100 | < 10 | < 10 | < 10 | < 10 | – | > 1000 | 100 to 1000 | 10 to 100 | 10 to 100 | 100 to 1000 | < 10 | < 10 | –
3 | CCOc1ncccc1C(=O)c1oc2ccc(Cl)cc2c1N [Example 78] | > 1000 | > 1000 | 10 to 100 | 10 to 100 | < 10 | < 10 | < 10 | 10 to 100 | < 10 | < 10 | > 1000 | 10 to 100 | 10 to 100 | < 10 | 100 to 1000 | 10 to 100 | 10 to 100 | –
4 | COc1ccc2oc(C(=O)c3cc(F)ccc3N3CC=CCC3)cc2c1 [Example 98] | 10 to 100 | > 1000 | 10 to 100 | 10 to 100 | < 10 | < 10 | 10 to 100 | 10 to 100 | 10 to 100 | < 10 | > 1000 | < 10 | < 10 | < 10 | < 10 | 10 to 100 | 10 to 100 | –
5 | COc1ccc2oc(C(=O)c3cc(F)ccc3N3CCCCC3)cc2c1 [Example 96] | 100 to 1000 | > 1000 | 100 to 1000 | 100 to 1000 | 100 to 1000 | – | – | – | – | – | > 1000 | 10 to 100 | 10 to 100 | 10 to 100 | 10 to 100 | 10 to 100 | 10 to 100 | –
6 | Nc1c(C(=O)c2cccnc2N2CCOCC2)oc2ccc(Cl)cc12 [Example 37, 3-Amino-5-chloro-2-(2-morpholino-3-pyridylcarbonyl)-benzofuran] | – | > 1000 | – | 10 to 100 | – | – | – | – | 10 to 100 | – | > 1000 | – | 10 to 100 | – | – | – | – | EC50 [1, 20]: > 1000 nM; EC50 (tumor cells [2]; [21]): 10 to 100 nM; EC50 (tumor cells [2]; [22]): 10 to 100 nM; IC50 ([3]; Homo sapiens): 10 to 100 nM; IC50 (tumor cells [4]; Homo sapiens, HT-1080, HT1080 cells, read-out: MTS proliferation assay IC50, HT1080): 10 to 100 nM; IC50 (tumor cells [4]; Homo sapiens, HeLa cells, read-out: MTS proliferation assay IC50, HeLa): 10 to 100 nM; IC50 (tumor cells [4]; Homo sapiens, Jurkat cells, read-out: MTS proliferation assay IC50, Jurkat): < 10 nM; EC50 (tumor cells [6]; [23]): 100 to 1000 nM; EC50 (tumor cells [6]; [24]): 10 to 100 nM; EC50 (tumor cells [6]; [25]): > 1000 nM; IC50 (HeLa; Homo sapiens, 144 h): 10 to 100 nM; IC50 (H460; Homo sapiens, NCI-H460, 144 h): 10 to 100 nM
7 | C#CCOc1ccccc1C(=O)c1oc2ccc(Cl)cc2c1N [Example 8] | > 1000 | > 1000 | 100 to 1000 | 100 to 1000 | 10 to 100 | 100 to 1000 | 100 to 1000 | 100 to 1000 | 10 to 100 | 10 to 100 | > 1000 | 100 to 1000 | 100 to 1000 | 100 to 1000 | 100 to 1000 | 100 to 1000 | 100 to 1000 | –
8 | CCOc1ccc(F)cc1C(=O)c1oc2ccc(O)cc2c1N [Example 75] | < 10 | > 1000 | < 10 | < 10 | < 10 | < 10 | < 10 | 10 to 100 | < 10 | < 10 | > 1000 | < 10 | < 10 | < 10 | 10 to 100 | 10 to 100 | 10 to 100 | –
9 | CCOc1ccccc1C(=O)c1cc2cc(OC)ccc2o1 [Example 53] | 100 to 1000 | > 1000 | 10 to 100 | 10 to 100 | < 10 | < 10 | < 10 | < 10 | < 10 | – | > 1000 | 10 to 100 | 10 to 100 | 10 to 100 | 10 to 100 | 10 to 100 | 10 to 100 | –
10 | CCOc1ccc(F)cc1C(=O)c1cc2cc(O)ccc2o1 [Example 64] | 100 to 1000 | > 1000 | 10 to 100 | 10 to 100 | < 10 | 10 to 100 | 10 to 100 | 10 to 100 | < 10 | < 10 | > 1000 | 10 to 100 | 10 to 100 | < 10 | > 1000 | 10 to 100 | 10 to 100 | –
11 | CCOc1ccc(F)cc1C(=O)c1oc2ccc(OC)cc2c1N [Example 48] | < 10 | > 1000 | < 10 | < 10 | < 10 | < 10 | < 10 | < 10 | < 10 | < 10 | 100 to 1000 | 10 to 100 | < 10 | < 10 | 10 to 100 | 10 to 100 | < 10 | –
12 | CCN(C)c1ncccc1C(=O)c1oc2ccc(Cl)cc2c1N [Example 80] | > 1000 | > 1000 | 100 to 1000 | 100 to 1000 | 100 to 1000 | 100 to 1000 | 100 to 1000 | 100 to 1000 | 10 to 100 | 10 to 100 | > 1000 | 100 to 1000 | 100 to 1000 | 10 to 100 | > 1000 | 100 to 1000 | 100 to 1000 | –
13 | C=CCOc1ccc(OC)cc1C(=O)c1oc2ccc(Cl)cc2c1N [Example 4, 3-Amino-5-chloro-2-(2-allyloxy-5-methoxybenzoyl)-benzofuran] | – | > 1000 | – | 10 to 100 | – | – | – | – | – | – | > 1000 | – | 10 to 100 | – | – | – | – | EC50 [1, 20]: 10 to 100 nM; EC50 (tumor cells [2]; [21]): 10 to 100 nM; EC50 (tumor cells [2]; [22]): 10 to 100 nM; EC50 (tumor cells [6]; [23]): 10 to 100 nM; EC50 (tumor cells [6]; [24]): 10 to 100 nM; EC50 (tumor cells [6]; [25]): 10 to 100 nM; IC50 (HeLa; Homo sapiens, 144 h): 10 to 100 nM; IC50 (H460; Homo sapiens, NCI-H460, 144 h): 10 to 100 nM
14 | Nc1c(C(=O)c2cccnc2N2CCCNCC2)oc2ccc(Cl)cc12 [Example 84] | > 1000 | > 1000 | > 1000 | > 1000 | > 1000 | > 1000 | > 1000 | > 1000 | > 1000 | > 1000 | > 1000 | > 1000 | > 1000 | > 1000 | > 1000 | – | – | –
15 | CCOc1ccc(F)cc1C(=O)c1cc2cc(OC(=O)N(C)C)ccc2o1 [Example 72] | > 1000 | > 1000 | > 1000 | 100 to 1000 | 100 to 1000 | 100 to 1000 | 100 to 1000 | 100 to 1000 | 100 to 1000 | – | > 1000 | > 1000 | 100 to 1000 | 100 to 1000 | > 1000 | – | – | –
